Assay results as given in patent US20060160703A1, “Selective herbicides based on substituted cyclic dicarbonyl compounds and safeners” (priority 2003, published 2006).

How the values were obtained:
Assay type in all cases: in vivo
[1] = tested on: Corn of the Cultivar Lorenzo; test: Greenhouse trial, post-emergence, corn (Example 3)
Experimental: (§1) Seeds of monocotyledonous and dicotyledonous weed and crop plants are placed into sandy loam in wood fiber pots or in plastic pots, covered with soil and cultivated in a greenhouse, including during the vegetation period outdoors outside of the greenhouse, under good growth conditions. Two-three weeks after sowing, the test plants are treated at the one- to three-leaf stage. […], formulated as wettable powders (WP) or emulsifiable concentrates (EC) are, in various dosages with a water application rate of 300 l/ha (converted), with added wetting agent (0.2 to 0.3%) sprayed onto the plants and the surface of the soil. Three to four weeks after the treatment of the test plants, the effect of the preparations is rated visually in comparison to untreated controls (herbicidal effect in percent (%): 100% effect=plants have died, 0% effect=like control plants).
(§2) If it is additionally to be tested as to whether safeners can improve the plant compatibility of test substances in the case of crop plants, the following options are used for applying the safener:
seeds of the crop plants are, before sowing, dressed with the safener substance (the amount of safener is stated in percent, based on the weight of the seed)
(§3) before the application of the test substances, the crop plants are sprayed with the safener at a certain application rate per hectare (usually 1 day before the application of the test substances).
(§4) By comparing the effect of the test substances on crop plants without or with safener treatment, it is possible to assess the effect of the safener substance. [drawing 61] [drawing 62]
Greenhouse Trial/Post-Emergence
Corn of the Cultivar Lorenzo
Addition of Safener: • a) Before sowing, seeds of the crop plants are dressed with the compound of the formula (IIe-5) (0.5% of safener, based on the weight of the seeds). • b) One day before the application of the compounds of the formula (I), the crop plants are treated with the compound of the formula (IIe-5) (application rate 100 g/ha). • c) One day before the application of the compounds of the formula (I), the crop plants are treated with isoxadifen (application rate 100 g/ha)
For the spray treatment, the herbicide was formulated as WP20 and the safener as WP10.

Summer barley [2] = test: Outdoor trial, post-emergence, tank mix (Example 1); conditions: herbicide 0.120 kg/ha, combinations: tank mix mefenpyr-diethyl:compound (I) = 2:1, 100% = plants have died, 0% = like control
Experimental: as §1, §2
(§5) the safener is applied together with the test substance as a tank mix (the amount of safener is stated in g/ha or as a ratio, based on the herbicide).
as §4
(§6) Outdoor trial/Post-emergence
(§7) Ratio mefenpyr-diethyl:compound of the formula (I)=2:1

Summer wheat [3] = test: as above; conditions: herbicide 0.120 kg/ha, combinations: tank mix mefenpyr-diethyl:compound (I) = 2:1
Experimental: as §1, §2, §5, §4, §6, §7

Winter wheat = test: as above; conditions: herbicide 0.120 kg/ha, combinations: tank mix mefenpyr-diethyl:compound (I) = 2:1
Experimental: as §1, §2, §5, §4, §6, §7

Winter barley = test: as above; conditions: herbicide 0.120 kg/ha, combinations: tank mix mefenpyr-diethyl:compound (I) = 2:1
Experimental: as §1, §2, §5, §4, §6, §7

Summer barley [4] = test: Greenhouse trial, post-emergence, safener one day before (Example 2); conditions: combinations: safener 100 g/ha one day before
Experimental: as §1, §2, §3, §4
(§8) Greenhouse trial/Post-emergence
(§9) One day before the application of the compounds of the formula (I), the crop plants are treated with the safener (application rate 100 g/ha).

Summer wheat [5] = test: as above; conditions: combinations: safener 100 g/ha one day before
Experimental: as §1, §2, §3, §4, §8, §9

[6] = herbicide 0.013 kg/ha; greenhouse, post-emergence; corn cultivar Lorenzo; safener by method a), b) or c) as
[7] = herbicide 0.025 kg/ha; greenhouse, post-emergence; corn cultivar Lorenzo; safener by method a), b) or c) as
[8] = herbicide 0.050 kg/ha; greenhouse, post-emergence; corn cultivar Lorenzo; safener by method a) IIe-5 seed dressing 0.5%, b) IIe-5 100 g/ha one day before, c) isoxadifen 100 g/ha one day before

| Compound | herbicidal effect in percent, Corn [1, 6] | herbicidal effect in percent, Corn [1, 7] | herbicidal effect in percent, Corn [1, 8] | herbicidal effect in percent, Summer barley (Summer barley [2]) | herbicidal effect in percent, Summer wheat (Summer wheat [3]) | herbicidal effect in percent, Winter wheat (Winter wheat) | herbicidal effect in percent, Winter barley (Winter barley) | herbicidal effect in percent, Summer barley (Summer barley [4]; herbicide 0.100 kg/ha) | herbicidal effect in percent, Summer wheat (Summer wheat [5]; herbicide 0.100 kg/ha) | herbicidal effect in percent, Summer barley (Summer barley [4]; herbicide 0.025 kg/ha) | herbicidal effect in percent, Summer barley (Summer barley [4]; herbicide 0.050 kg/ha) | herbicidal effect in percent, Summer wheat (Summer wheat [5]; herbicide 0.025 kg/ha) | herbicidal effect in percent, Summer wheat (Summer wheat [5]; herbicide 0.050 kg/ha) |
| --- | --- | --- | --- | --- | --- | --- | --- | --- | --- | --- | --- | --- | --- |
| CCc1cc(Cl)cc(Cl)c1C1(Cl)C(=O)NC2(CCC(OC)CC2)C1=O (stereo not drawn) [I-1-1] | 99% | 100% | 100% | 40% | 15% | 20% | 30% |  |  |  |  |  |  |
| CCc1cc(Br)cc(CC)c1C1(Cl)C(=O)NC(C)(C)C1=O (stereo not drawn) [I-1-3] | 0% | 0% | 85% |  |  |  |  |  |  |  |  |  |  |
| CCc1cc(Br)cc(CC)c1C1(Cl)C(=O)NC2(CCCCC2)C1=O (stereo not drawn) [I-1-4] |  |  |  |  |  |  |  | 10% | 10% |  |  |  |  |
| Cc1cc(-c2ccc(Cl)cc2)cc(C)c1C1(Cl)C(=O)N2CCCCN2C1=O [I-4-1] |  |  |  |  |  |  |  | 80% | 60% | 20% | 80% | 20% | 60% |
| Cc1cc(-c2ccc(Cl)cc2)cc(C)c1C1(Cl)C(=O)N2CCOCCN2C1=O [I-4-2] |  |  |  |  |  |  |  | 97% | 97% | 40% | 95% | 60% | 97% |
| CCc1cc(Cl)cc(Br)c1C1(Cl)C(=O)NC2(CCCCC2)C1=O (stereo not drawn) [I-1-5] |  |  |  |  |  |  |  | 92% | 65% | 20% | 50% | 30% | 60% |
